The results in this text go back to patent US9403846B2, “Carbocyclic- and heterocyclic-substituted hexahydropyrano[3,4-d][1,3]thiazin-2-amine compounds” (Pfizer Inc., priority 2012, dated 2016).

One test deals with BACE1 enzyme (Homo sapiens (Human), UniProt P56817). Kind of test: BACE1 Cell-Free Assay (fluorescence polarization).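 Also: Affinity-purified soluble BACE1 from transfected CHO-K1 cells cleaving a biotinylated, Oregon Green-labelled synthetic APP peptide, 3 h at 37 °C, cleavage followed by fluorescence polarization change.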 Type of test: biochemical. The note with it: geometric mean of 2-3 determinations (Ex. 2: ≧6 determinations). (Polarisation of emitted light reports the rotation of a fluorescent probe.)
Test [1] concerns sAPPβ levels in H4 human neuroglioma cells over-expressing the wild-type human APP695. Kind of test: Whole Cell Assay (In Vitro sAPPb Assay). Type of test: cell-based. The settings on record: Homo sapiens, 18 hours, geometric mean of 2-3 determinations (Ex. 2: ≧6 determinations).
The target in the next test is BACE2 enzyme (Homo sapiens (Human), UniProt Q9Y5Z0). Kind of test: BACE2 Assay (cell-free, fluorescence polarization). The class given is biochemical. The settings on record: single determination. The method, then: This assay measures the inhibition of the BACE2 enzyme as it cleaves a non-native peptide. A synthetic substrate that can be cleaved by BACE2 having N-terminal biotin and made fluorescent by the covalent attachment of Oregon Green at the Cys residue is used to assay BACE2 activity in the presence or absence of the inhibitory compounds. The substrate is Biotin-[…]-C(Oregon green)-KK-OH. The BACE2 enzyme is available from Enzo Life Sciences (Cat # BML-SE550). Compounds are incubated in a ½ log dose response curve from a top concentration of 100 μM with BACE2 enzyme and the biotinylated fluorescent peptide in 384-well black plates (Thermo Scientific #4318). BACE2 is at a final concentration of 2.5 nM with a final concentration of peptide substrate of 150 nM in a reaction volume of 30 μL assay buffer (100 mM sodium acetate, pH 4.5 (brought to pH with acetic acid), and 0.001% Tween-20). Plates are covered and incubated for 3 hours at 37° C. The reaction is stopped with the addition of 30 μL of 1.5 μM Streptavidin (Pierce, #21125). After a 10 minute incubation at room temperature, plates are read on a PerkinElmer EnVision for fluorescence polarization (Ex485 nm/Em530 nm). The activity of the beta-secretase enzyme is detected by changes in the fluorescence polarization that occur when the substrate is cleaved by the enzyme.

Counter-ions that a name gives are not always drawn.

In general, IC50 refers to the midpoint of a concentration-inhibition curve. Higher therefore signals a need for much substance.

Sequence of BACE1 enzyme (P56817 46-457): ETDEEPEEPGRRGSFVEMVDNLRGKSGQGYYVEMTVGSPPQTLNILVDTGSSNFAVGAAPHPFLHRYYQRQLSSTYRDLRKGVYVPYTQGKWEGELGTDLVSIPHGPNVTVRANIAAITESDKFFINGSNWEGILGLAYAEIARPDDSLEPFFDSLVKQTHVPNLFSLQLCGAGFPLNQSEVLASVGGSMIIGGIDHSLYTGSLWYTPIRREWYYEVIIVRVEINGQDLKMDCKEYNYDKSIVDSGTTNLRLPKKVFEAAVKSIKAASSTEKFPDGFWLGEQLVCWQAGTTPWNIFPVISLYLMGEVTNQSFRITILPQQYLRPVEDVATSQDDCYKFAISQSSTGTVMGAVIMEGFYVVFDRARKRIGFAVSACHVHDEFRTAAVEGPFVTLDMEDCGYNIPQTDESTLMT
Sequence of BACE2 enzyme (Q9Y5Z0 63-518): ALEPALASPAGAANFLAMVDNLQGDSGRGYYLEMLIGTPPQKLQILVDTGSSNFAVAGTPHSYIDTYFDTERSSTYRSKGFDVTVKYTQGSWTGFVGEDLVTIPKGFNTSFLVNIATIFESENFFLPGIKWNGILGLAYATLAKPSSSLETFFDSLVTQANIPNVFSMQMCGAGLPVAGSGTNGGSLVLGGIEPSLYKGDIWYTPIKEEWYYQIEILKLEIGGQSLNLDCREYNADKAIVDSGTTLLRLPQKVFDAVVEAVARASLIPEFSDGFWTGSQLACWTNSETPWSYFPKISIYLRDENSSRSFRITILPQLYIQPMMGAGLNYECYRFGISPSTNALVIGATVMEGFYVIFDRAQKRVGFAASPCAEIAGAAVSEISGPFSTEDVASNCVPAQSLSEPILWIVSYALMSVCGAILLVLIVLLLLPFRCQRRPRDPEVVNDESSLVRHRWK

As for `C[C@H]1SC(N)=N[C@@]2(c3ccc(F)cc3F)CO[C@@H](C3CC3)C[C@@H]12` [Example 3, (4R,4aR,6R,8aS)-6-Cyclopropyl-8a-(2,4-difluorophenyl)-4-methyl-4,4a,5,6,8,8a-hexahydropyrano[3,4-d][1,3]thiazin-2-amine, trifluoroacetate salt], the IC50 against BACE1 enzyme was found to be 0.337 µM; in test [1], 0.0389 µM; against BACE2 enzyme it was 2.49 µM.
